Measured values reported in patent publication US9637453B2, “3-spirocyclic-6-hydroxamic acid tetralins as HDAC inhibitors” (Forma Therapeutics, Inc., priority 2015, dated 2017).
pIC50: −log10 of the molar value.

Key:
[1] = target: T1, Full length human recombinant HDAC6 (Homo sapiens, UniProt Q9UBN7); assay: In vitro histone deacetylase assay, enzymatic HDAC6 (electrophoretic mobility shift assay); assay type: biochemical; conditions: 1 nM HDAC6; 2 μM peptide substrate FAM-RHKK(Ac)—NH2; 25° C.; 12 concentrations; read-out: HDAC6 Activity Range (IC50)
T1 construct: Full length human recombinant HDAC6 and HDAC11 proteins were expressed in baculoviral system
T1 sequence (Q9UBN7 1-1215): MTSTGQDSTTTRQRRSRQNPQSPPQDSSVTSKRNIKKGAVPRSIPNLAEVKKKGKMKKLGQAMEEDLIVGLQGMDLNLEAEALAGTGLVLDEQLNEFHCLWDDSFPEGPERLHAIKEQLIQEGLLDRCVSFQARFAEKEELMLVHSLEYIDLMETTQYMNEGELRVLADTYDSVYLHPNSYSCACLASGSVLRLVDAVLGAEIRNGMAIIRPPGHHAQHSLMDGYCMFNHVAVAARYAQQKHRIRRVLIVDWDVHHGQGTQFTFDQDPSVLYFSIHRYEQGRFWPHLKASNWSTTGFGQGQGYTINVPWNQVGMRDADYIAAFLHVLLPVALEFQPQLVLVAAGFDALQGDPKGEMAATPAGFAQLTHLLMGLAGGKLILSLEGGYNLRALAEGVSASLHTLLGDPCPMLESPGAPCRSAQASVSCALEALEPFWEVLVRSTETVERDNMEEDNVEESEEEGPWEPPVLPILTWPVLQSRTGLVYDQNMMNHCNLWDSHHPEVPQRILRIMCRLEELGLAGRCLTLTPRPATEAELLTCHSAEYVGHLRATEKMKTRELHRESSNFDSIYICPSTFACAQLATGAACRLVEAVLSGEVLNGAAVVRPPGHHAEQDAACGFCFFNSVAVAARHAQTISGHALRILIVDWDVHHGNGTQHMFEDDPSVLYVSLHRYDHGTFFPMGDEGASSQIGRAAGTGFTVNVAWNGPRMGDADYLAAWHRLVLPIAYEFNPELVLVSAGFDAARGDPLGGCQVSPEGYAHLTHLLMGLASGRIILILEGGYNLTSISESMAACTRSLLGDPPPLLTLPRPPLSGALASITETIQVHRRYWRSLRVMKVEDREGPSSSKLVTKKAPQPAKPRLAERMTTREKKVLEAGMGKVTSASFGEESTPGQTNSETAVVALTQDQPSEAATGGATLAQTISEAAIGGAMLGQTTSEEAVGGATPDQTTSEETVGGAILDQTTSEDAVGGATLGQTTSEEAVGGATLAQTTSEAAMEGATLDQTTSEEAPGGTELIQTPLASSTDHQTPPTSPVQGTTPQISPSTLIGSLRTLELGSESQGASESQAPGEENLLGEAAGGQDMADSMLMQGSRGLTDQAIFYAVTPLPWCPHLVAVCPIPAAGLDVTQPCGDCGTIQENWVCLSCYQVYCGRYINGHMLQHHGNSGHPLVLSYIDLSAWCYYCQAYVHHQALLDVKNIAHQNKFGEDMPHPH
In short: (§1)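 Baculovirus-expressed full-length enzymes (HDAC6 1 nM, FAM-RHKK(Ac)-NH2; HDAC11 10 nM, FAM-RHKK(tri-fluor-Ac)-NH2), 2 μM substrate, HEPES pH 7.5, 25°C, 12-point 3× dilutions. Product/substrate separated by microfluidic mobility shift after SDS quench; IC50 from 4-parameter fit, reported as +/++/+++ bins.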

[2] = target: T2, Full length human recombinant HDAC11 (Homo sapiens, UniProt Q96DB2); assay: In vitro histone deacetylase assay, enzymatic HDAC11 (electrophoretic mobility shift assay); assay type: biochemical; conditions: 10 nM HDAC11; 2 μM peptide substrate FAM-RHKK(tri-fluor-Ac)—NH2; 25° C.; 12 concentrations; read-out: HDAC11 Activity Range (IC50)
T2 construct: Full length human recombinant HDAC6 and HDAC11 proteins were expressed in baculoviral system
T2 sequence (Q96DB2 1-347): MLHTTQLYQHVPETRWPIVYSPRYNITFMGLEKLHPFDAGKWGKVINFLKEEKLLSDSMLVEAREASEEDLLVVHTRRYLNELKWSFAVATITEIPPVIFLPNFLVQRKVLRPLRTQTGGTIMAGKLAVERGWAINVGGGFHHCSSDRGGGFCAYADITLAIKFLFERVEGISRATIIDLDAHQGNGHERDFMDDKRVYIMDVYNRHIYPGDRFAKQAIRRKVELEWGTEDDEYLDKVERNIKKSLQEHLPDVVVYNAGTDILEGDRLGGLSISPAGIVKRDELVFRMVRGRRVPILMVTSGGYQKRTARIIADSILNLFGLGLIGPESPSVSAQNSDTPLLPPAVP
In short: as §1

Structure (SMILES) | pIC50 [1] | pIC50 [2]
COCCCN1C[C@]2(CCc3ccc(C(=O)NO)cc3C2)CC1=O [Compound I-136, (S)—N-hydroxy-1′-(3-methoxypropyl)-5′-oxo-3,4-dihydro-1H-spiro[naphthalene-2,3′-pyrrolidine]-7-carboxamide] | ≥ 7.00 | < 6.30
CC(C)CN1C[C@@]2(CCc3ccc(C(=O)NO)cc3C2)CC1=O [Compound I-137, (R)—N-hydroxy-1′-isobutyl-5′-oxo-3,4-dihydro-1H-spiro[naphthalene-2,3′-pyrrolidine]-7-carboxamide] | ≥ 7.00 | < 6.30
CC(C)CN1C[C@]2(CCc3ccc(C(=O)NO)cc3C2)CC1=O [Compound I-138, (S)—N-hydroxy-1′-isobutyl-5′-oxo-3,4-dihydro-1H-spiro[naphthalene-2,3′-pyrrolidine]-7-carboxamide] | ≥ 7.00 | < 6.30
CC(C)N1C[C@@]2(CCc3ccc(C(=O)NO)cc3C2)CC1=O [Compound I-139, (R)—N-hydroxy-1′-isopropyl-5′-oxo-3,4-dihydro-1H-spiro[naphthalene-2,3′-pyrrolidine]-7-carboxamide] | ≥ 7.00 | < 6.30
CC(C)N1C[C@]2(CCc3ccc(C(=O)NO)cc3C2)CC1=O [Compound I-140, (S)—N-hydroxy-1′-isopropyl-5′-oxo-3,4-dihydro-1H-spiro[naphthalene-2,3′-pyrrolidine]-7-carboxamide] | ≥ 7.00 | < 6.30
O=C(NO)c1ccc2c(c1)C[C@@]1(CC2)CC(=O)N(C2CC2)C1 [Compound I-141, (S)-1′-cyclopropyl-N-hydroxy-5′-oxo-3,4-dihydro-1H-spiro[naphthalene-2,3′-pyrrolidine]-7-carboxamide] | ≥ 7.00 | < 6.30
CCN1C[C@@]2(CCc3ccc(C(=O)NO)cc3C2)CC1=O [Compound I-142, (R)-1′-ethyl-N-hydroxy-5′-oxo-3,4-dihydro-1H-spiro[naphthalene-2,3′-pyrrolidine]-7-carboxamide] | ≥ 7.00 | < 6.30
CCN1C[C@]2(CCc3ccc(C(=O)NO)cc3C2)CC1=O [Compound I-143, (S)-1′-ethyl-N-hydroxy-5′-oxo-3,4-dihydro-1H-spiro[naphthalene-2,3′-pyrrolidine]-7-carboxamide] | ≥ 7.00 | < 6.30
O=C(NO)c1ccc2c(c1)C[C@@]1(CC2)CC(=O)N(CC(F)(F)F)C1 [Compound I-144, (S)—N-hydroxy-5′-oxo-1′-(2,2,2-trifluoroethyl)-3,4-dihydro-1H-spiro[naphthalene-2,3′-pyrrolidine]-7-carboxamide] | ≥ 7.00 | < 6.30
O=C(NO)c1ccc2c(c1)C[C@]1(CC2)CC(=O)N(c2ccccc2)C1 [Compound I-145, (R)—N-hydroxy-5′-oxo-1′-phenyl-3,4-dihydro-1H-spiro[naphthalene-2,3′-pyrrolidine]-7-carboxamide] | ≥ 7.00 | < 6.30
O=C(NO)c1ccc2c(c1)C[C@]1(CC2)CC(=O)N(CC2COC2)C1 [Compound I-146, (R)—N-hydroxy-1′-(oxetan-3-ylmethyl)-5′-oxo-3,4-dihydro-H-spiro[naphthalene-2,3′-pyrrolidine]-7-carboxamide] | ≥ 7.00 | < 6.30
O=C(NO)c1ccc2c(c1)C[C@@]1(CC2)CC(=O)N(CC2COC2)C1 [Compound I-147, (S)—N-hydroxy-1′-(oxetan-3-ylmethyl)-5′-oxo-3,4-dihydro-1H-spiro[naphthalene-2,3′-pyrrolidine]-7-carboxamide] | ≥ 7.00 | < 6.30
O=C(NO)c1ccc2c(c1)C[C@]1(CC2)CC(=O)N(C2CC2)C1 [Compound I-148, (R)-1′-cyclopropyl-N-hydroxy-5′-oxo-3,4-dihydro-H-spiro[naphthalene-2,3′-pyrrolidine]-7-carboxamide] | ≥ 7.00 | < 6.30
O=C(NO)c1ccc2c(c1)C[C@]1(CC2)CC(=O)N(CC(F)(F)F)C1 [Compound I-149, (R)—N-hydroxy-5′-oxo-1′-(2,2,2-trifluoroethyl)-3,4-dihydro-1H-spiro[naphthalene-2,3′-pyrrolidine]-7-carboxamide] | ≥ 7.00 | < 6.30
COc1ccc(C(=O)N2CCC3(CCc4ccc(C(=O)NO)cc4O3)CC2)cc1 [II-1, N-hydroxy-1′-(4-methoxybenzoyl)spiro[chroman-2,4′-piperidine]-7-carboxamide] | ≥ 7.00 | < 6.30
COc1ccc(S(=O)(=O)N2CCC3(CCc4ccc(C(=O)NO)cc4O3)CC2)cc1 [II-2, N-hydroxy-1′-((4-methoxyphenyl)sulfonyl)spiro[chromane-2,4′-piperidine]-7-carboxamide] | ≥ 7.00 | < 6.30
O=C(NO)c1ccc2c(c1)OC1(CC2)CCN(S(=O)(=O)C2CCCCC2)CC1 [II-3, 1′-(cyclohexylsulfonyl)-N-hydroxyspiro[chromane-2,4′-piperidine]-7-carboxamide] | ≥ 7.00 | ≥ 7.00
O=C(NO)c1ccc2c(c1)OC1(CC2)CCN(C(=O)Nc2ccccc2)CC1 [II-4, N7-hydroxy-N1′-phenylspiro[chroman-2,4′-piperidine]-1′,7-dicarboxamide] | ≥ 7.00 | < 6.30
O=C(NO)c1ccc2c(c1)OC1(CC2)CCN(C(=O)C2CCCCC2)CC1 [II-5, 1′-(cyclohexanecarbonyl)-N-hydroxyspiro[chromane-2,4′-piperidine]-7-carboxamide] | ≥ 7.00 | 6.30 to 7.00
O=C(NO)c1ccc2c(c1)OC1(CC2)CCN(C2CCCCC2)CC1 [II-6, 1′-cyclohexyl-N-hydroxyspiro[chroman-2,4′-piperidine]-7-carboxamide] | 6.30 to 7.00 | ≥ 7.00
COc1ccc(CN2CCC3(CCc4ccc(C(=O)NO)cc4O3)CC2)cc1 [II-7, N-hydroxy-1′-(4-methoxybenzyl)spiro[chromane-2,4′-piperidine]-7-carboxamide] | < 6.30 | < 6.30
